≈ marks a conversion by molar mass, not a printed value. Structures can show the parent of a compound that is named as a salt.
Assays:
Erysipelas insidiosa = experiment: Antibiotic activity, broth dilution; format: cell-based; conditions: broth dilution (bd), read-out: Minimum inhibitory concentration
Text: (§1) The novel antibiotic of this invention has an inhibitory action against the growth of microbial organisms, both bacteria and fungi, which are pathogenic to animal and plant life and is therefore useful in suppressing the growth of such organisms. The antibiotic A23187 is useful in wash solutions for sanitation purposes, as in the cleaning of equipment, floors or furnishings of contaminated rooms or laboratories. For such purposes, the antibiotic, or a salt thereof, is conveniently formulated as a solution in one of the lower chlorinated hydrocarbons, as for example, chloroform. […] The preparation of such formulations is readily accomplished by methods known in the art. The antibiotic can be employed in a wide range of concentrations. Because of its relatively high activity, concentratons of 100 to 500 parts per million are generally adequate for most purposes. The letters bd refer to broth dilution and the letters ad refer to agar dilution.

Mycoplasma gallisepticum = experiment: Antibiotic activity, broth dilution; format: cell-based; conditions: Mycoplasmoides gallisepticum, broth dilution (bd), read-out: Minimum inhibitory concentration
Text: as §1

Pasteurella hemolytica = experiment: Antibiotic activity, broth dilution; format: cell-based; conditions: broth dilution (bd), read-out: Minimum inhibitory concentration
Text: as §1

Pasteurella multocida = experiment: Antibiotic activity, broth dilution; format: cell-based; conditions: broth dilution (bd), read-out: Minimum inhibitory concentration
Text: as §1

[1] = system: Staphylococcus aureus 1130; experiment: Antibiotic activity, broth dilution; format: cell-based; conditions: broth dilution (bd), read-out: Minimum inhibitory concentration
Text: as §1

[2] = system: Staphylococcus aureus 3055; experiment: Antibiotic activity, broth dilution; format: cell-based; conditions: broth dilution (bd), read-out: Minimum inhibitory concentration
Text: as §1

[3] = system: Streptococcus faecalis 80; experiment: Antibiotic activity, broth dilution; format: cell-based; conditions: Enterococcus faecalis, broth dilution (bd), read-out: Minimum inhibitory concentration
Text: as §1

Bacillus subtilis = experiment: Antibiotic activity, agar dilution; format: cell-based; conditions: agar dilution (ad), read-out: Minimum inhibitory concentration
Text: as §1

Botrytis cinerea = experiment: Antibiotic activity, agar dilution; format: cell-based; conditions: agar dilution (ad), read-out: Minimum inhibitory concentration
Text: as §1

Candida albicans = experiment: Antibiotic activity, agar dilution; format: cell-based; conditions: agar dilution (ad), read-out: Minimum inhibitory concentration
Text: as §1

Ceratostomella ulmi = experiment: Antibiotic activity, agar dilution; format: cell-based; conditions: Ophiostoma ulmi, agar dilution (ad), read-out: Minimum inhibitory concentration
Text: as §1

Cladosporium resinae = experiment: Antibiotic activity, agar dilution; format: cell-based; conditions: Amorphotheca resinae, agar dilution (ad), read-out: Minimum inhibitory concentration
Text: as §1

Colletotrichum pisi = experiment: Antibiotic activity, agar dilution; format: cell-based; conditions: agar dilution (ad), read-out: Minimum inhibitory concentration
Text: as §1

Glomerella cingulata = experiment: Antibiotic activity, agar dilution; format: cell-based; conditions: Colletotrichum gloeosporioides, agar dilution (ad), read-out: Minimum inhibitory concentration
Text: as §1

Helminthosporium sativum = experiment: Antibiotic activity, agar dilution; format: cell-based; conditions: agar dilution (ad), read-out: Minimum inhibitory concentration
Text: as §1

Lactobacillus casei = experiment: Antibiotic activity, agar dilution; format: cell-based; conditions: Lacticaseibacillus casei, agar dilution (ad), read-out: Minimum inhibitory concentration
Text: as §1

Leuconostoc citrovorum = experiment: Antibiotic activity, agar dilution; format: cell-based; conditions: agar dilution (ad), read-out: Minimum inhibitory concentration
Text: as §1

Mycobacterium avium = experiment: Antibiotic activity, agar dilution; format: cell-based; conditions: agar dilution (ad), read-out: Minimum inhibitory concentration
Text: as §1

Penicillium expansum = experiment: Antibiotic activity, agar dilution; format: cell-based; conditions: agar dilution (ad), read-out: Minimum inhibitory concentration
Text: as §1

Pullularia sp. = experiment: Antibiotic activity, agar dilution; format: cell-based; conditions: agar dilution (ad), read-out: Minimum inhibitory concentration
Text: as §1

[4] = system: Saccharomyces pastorianus; experiment: Antibiotic activity, agar dilution; format: cell-based; conditions: agar dilution (ad), read-out: Minimum inhibitory concentration
Text: as §1

[5] = system: Trichophyton mentagrophytes; experiment: Antibiotic activity, agar dilution; format: cell-based; conditions: agar dilution (ad), read-out: Minimum inhibitory concentration
Text: as §1

Acute toxicity in mice = conditions: mouse, in vivo, ip, administered intraperitoneally
Experimental: The acute toxicity of antibiotic A23187 in mice, expressed as LD50, is about 10 mg/kg of body weight when the antibiotic is administered intraperitoneally.

[6] = Affinity for divalent cations (complex formation); format: binding
Text: Another characteristic feature of A23187 is its ability to form complexes with certain divalent cations. In experiments to determine the affinity of A23187 for such cations, the following order of reactivity is seen: […]

Solubility = format: physicochemical
Electrometric titration = format: physicochemical; conditions: 90% dimethylsulfoxide; electrometric titration in 90 percent dimethylsulfoxide
Experimental: The molecular weight, calculated from titration data, is approximately 550. A23187 is optically active, having a specific rotation, [α]D^25, of […], at a concentration of 1% in chloroform.

CNc1ccc2oc(C[C@H]3O[C@@]4(CC[C@H]3C)O[C@H]([C@H](C)C(=O)c3ccc[nH]3)[C@H](C)C[C@H]4C)nc2c1C(=O)O [Antibiotic A23187]
MIC (Erysipelas insidiosa): < 0.048 µg/mL
MIC (Mycoplasma gallisepticum): 1.56 µg/mL (≈ 2.98 µM)
MIC (Pasteurella hemolytica): 12.5 µg/mL (≈ 23.9 µM)
MIC (Pasteurella multocida): 0.39 µg/mL (≈ 0.745 µM)
MIC [1]: 0.048 µg/mL (≈ 0.0917 µM)
MIC [2]: 0.78 µg/mL (≈ 1.49 µM)
MIC [3]: 0.097 µg/mL (≈ 0.185 µM)
MIC (Bacillus subtilis): 0.2 µg/mL (≈ 0.382 µM)
MIC (Botrytis cinerea): 1.56 µg/mL (≈ 2.98 µM)
MIC (Candida albicans): 25 µg/mL (≈ 47.7 µM)
MIC (Ceratostomella ulmi): 6.25 µg/mL (≈ 11.9 µM)
MIC (Cladosporium resinae): 6.25 µg/mL (≈ 11.9 µM)
MIC (Colletotrichum pisi): 6.25 µg/mL (≈ 11.9 µM)
MIC (Glomerella cingulata): 100 µg/mL (≈ 191 µM)
MIC (Helminthosporium sativum): 25 µg/mL (≈ 47.7 µM)
MIC (Lactobacillus casei): 0.78 µg/mL (≈ 1.49 µM)
MIC (Leuconostoc citrovorum): 0.2 µg/mL (≈ 0.382 µM)
MIC (Mycobacterium avium): 0.4 µg/mL (≈ 0.764 µM)
MIC (Penicillium expansum): 6.25 µg/mL (≈ 11.9 µM)
MIC (Pullularia sp.): 1.56 µg/mL (≈ 2.98 µM)
MIC [4]: 1.56 µg/mL (≈ 2.98 µM)
MIC [5]: 0.78 µg/mL (≈ 1.49 µM)
LD50 (Acute toxicity in mice): ~10 mg/kg
affinity for Be^+^+ [6]: moderate affinity
affinity for Cd^+^+ [6]: appreciable affinity
affinity for Co^+^+ [6]: moderate affinity
affinity for Hg^+^+ [6]: no apparent affinity
affinity for Ni^+^+ [6]: moderate affinity
affinity for Zn^+^+ [6]: moderate affinity
order of reactivity (affinity) for divalent cations ([6]; Mn, Ca, Mg, Sr, Ba cations): Mn^+^+ >> Ca^+^+ = Mg^+^+ > Sr^+^+ > Ba^+^+
ionophorous properties, specificity ([6]; divalent cations): high specificity for divalent cations
solubility in water (Solubility): relatively insoluble in water

CNc1ccc2oc(CC3OC4(CCC3C)OC(C(C)C(=O)c3ccc[nH]3)C(C)CC4C)nc2c1C(=O)O (stereo not drawn) [mixed calcium-magnesium salt of A23187]
pKa (Electrometric titration): 6.9
solubility in the lower alkyl ketones (Solubility; acetone, methylethyl ketone, diethyl ketone and the like): very soluble
solubility in the lower alcohols (Solubility; methanol, ethanol, isopropanol and the like): very slightly soluble
solubility in esters formed with the lower alkyl carboxylic acids and lower alcohols (Solubility; methyl acetate, ethyl acetate, methyl propionate, amyl acetate, methyl butyrate and the like): very soluble
solubility in the lower alkyl chlorinated hydrocarbons (Solubility; methylene chloride, chloroform, dichloroethane and the like): very soluble
solubility in hydrocarbons (Solubility; pentane, hexane, heptane and the like): insoluble
solubility in water (Solubility): insoluble

— patent US3960667A, “Antibiotic A23187 and process for preparation thereof” (priority 1975, dated 1976)
